Earlier results, collected in patent US20200225249A1, “COMPOSITIONS AND METHODS FOR THE DIAGNOSIS AND TREATMENT OF DISEASES OF THE LIVER” (Viscient Biosciences, Inc., priority 2019, published 2020).

Key:
[1] = system: rat hepatocytes; conditions: Shin M, et al., 1999
[2] = system: NASH patients; conditions: clinical trial; Laurin J, et al., 1996
[3] = system: QPRT; conditions: rat hepatocytes; Shin M, et al., 1999
[4] = system: primary neurons and astrocytes; conditions: Braidy et al, 2011

Compound | NAD+ levels [1] | symptoms of NASH patients [2] | QPRT expression [3] | cell viability [4]
CCOC(=O)C(C)(C)Oc1ccc(Cl)cc1 [Clofibrate] | increases NAD+ levels | failed to improve the symptoms | stimulates QPRT expression | –
O=C(O)c1ccccc1C(=O)O [Phthalic acid, 1,2-Benzenedicarboxylic acid] | – | – | – | reduced cell viability
